The source of these data is patent US10428051B2 (priority 2015, dated 2019).

This test deals with human σ1 receptor (Homo sapiens, UniProt Q99720). As to the kind of experiment: biochemical. Format: binding. On the set-up: μ and σ1 dual (binding to the σ1 receptor and the μ-opioid receptor expressed as Ki): key to the marks not given beside the values.
Chain of human σ1 receptor (Q99720 whole entry): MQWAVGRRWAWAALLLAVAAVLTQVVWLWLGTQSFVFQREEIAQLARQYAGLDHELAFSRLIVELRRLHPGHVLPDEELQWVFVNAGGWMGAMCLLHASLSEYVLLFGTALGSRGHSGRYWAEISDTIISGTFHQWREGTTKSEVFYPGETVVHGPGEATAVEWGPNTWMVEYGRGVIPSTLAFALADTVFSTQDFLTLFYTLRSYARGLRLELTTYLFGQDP

For the compound `CCC(=O)N(CC1(N2CCN(Cc3ccc(OC)nc3)CC2)CCOCC1)c1ccccc1` [Example 109, N-((4-(4-((6-methoxypyridin-3-yl)methyl)piperazin-1-yl)tetrahydro-2H-pyran-4-yl)methyl)-N-phenylpropionamide], the Ki (usually the dissociation constant of the complex between target and ligand, obtained from inhibition or displacement) is less than 0.5 µM. Compound `CCC(=O)N(CC1(N2CCN(Cc3ccccc3)CC2)CCOCC1)c1ccccc1Cl` [Example 2, N-((4-(4-benzylpiperazin-1-yl)tetrahydro-2H-pyran-4-yl)methyl)-N-(2-chlorophenyl)propionamide] gave an inhibitory constant (Ki) of less than 0.1 µM.

`CCC(=O)N(CC1(N2CCN(Cc3ccccc3)CC2)CCOCC1)c1cncc(C(F)(F)F)c1` [Example 9, N-((4-(4-benzylpiperazin-1-yl)tetrahydro-2H-pyran-4-yl)methyl)-N-(5-(trifluoromethyl)pyridin-3-yl)propionamide]: the “μ and σ1 dual (binding to the σ1 receptor and the μ-opioid receptor expressed as Ki)” value (shortened to “μ and σ1 dual”) is reported as “++”. Turning to `CCC(=O)N(CC1(N2CCN(CC(=O)N3CCCCC3)CC2)CCOCC1)c1ccccc1` [Example 127, N-((4-(4-(2-oxo-2-(piperidin-1-yl)ethyl)piperazin-1-yl)tetrahydro-2H-pyran-4-yl)methyl)-N-phenylpropionamide], the Ki was more than 0.5 µM. Take `CCC(=O)N(CC1(N2CCN(Cc3ccccc3)CC2)CC1)c1cccc(C#N)c1` [Example 96, N-((1-(4-benzylpiperazin-1-yl)cyclopropyl)methyl)-N-(3-cyanophenyl)propionamide]: the Ki is less than 0.5 µM. `CCC(=O)N(CC1(N2CCN(CC(=O)N3CCCCC3)CC2)CC1)c1ccccc1` [Example 132, N-((1-(4-(2-oxo-2-(piperidin-1-yl)ethyl)piperazin-1-yl)cyclopropyl)methyl)-N-phenylpropionamide]: the “μ and σ1 dual” value was “++”. The same measure, in the same setting: the result for `CCC(=O)N(CC1(N2CCN(CCc3ncccc3F)CC2)CCOCC1)c1cccc(C(F)(F)F)n1` [Example 192, N-((4-(4-(2-(3-Fluoropyridin-2-yl)ethyl)piperazin-1-yl)tetrahydro-2H-pyran-4-yl)methyl)-N-(6-(trifluoromethyl)pyridin-2-yl)propionamide] reads “++”. Consider `CCC(=O)N(CC1(N2CCN(Cc3ccccc3)CC2)CCOCC1)c1cncc(F)c1` [Example 10, N-((4-(4-benzylpiperazin-1-yl)tetrahydro-2H-pyran-4-yl)methyl)-N-(5-fluoropyridin-3-yl)propionamide], for which the Ki is less than 0.5 µM. For the compound `CCOCCN1CCC(C2(CN(C(=O)CC)c3cccc(C(F)(F)F)n3)CCOCC2)CC1` [Example 177, N-((4-(1-(2-ethoxyethyl)piperidin-4-yl)tetrahydro-2H-pyran-4-yl)methyl)-N-(6-(trifluoromethyl)pyridin-2-yl)propionamide], the Ki was less than 0.5 µM. On to `CCC(=O)N(CC(C)(C)N1CCN(CC(C)C)CC1)c1ncccc1F` [Example 74, N-(3-fluoropyridin-2-yl)-N-(2-(4-isobutylpiperazin-1-yl)-2-methylpropyl)propionamide], for which the “μ and σ1 dual” value is recorded as “++”.

Take `CCC(=O)N(CC1(N2CCN(Cc3cccc(F)c3)CC2)CCOCC1)c1ccccn1` [Example 110, N-((4-(4-(3-fluorobenzyl)piperazin-1-yl)tetrahydro-2H-pyran-4-yl)methyl)-N-(pyridin-2-yl)propionamide]: the inhibitory constant (Ki) was less than 0.5 µM. Still for that read-out and setting: for `CCC(=O)N(CC1(N2CCN(CCOC(C)C)CC2)CC1)c1cccc(C(F)(F)F)n1` [Example 179, N-((1-(4-(2-isopropoxyethyl)piperazin-1-yl)cyclopropyl)methyl)-N-(6-(trifluoromethyl)pyridin-2-yl)propionamide] the value was less than 0.5 µM.

Consider `COCC(=O)N(CC1(N2CCN(CC(C)C)CC2)CCOCC1)c1cccc(C(F)(F)F)n1` [Example 39, N-((4-(4-isobutylpiperazin-1-yl)tetrahydro-2H-pyran-4-yl)methyl)-2-methoxy-N-(6-(trifluoromethyl)pyridin-2-yl)acetamide], for which the “μ and σ1 dual” value was “++”. For the compound `CCC(=O)N(CC1(N2CCN(Cc3ccccc3F)CC2)CCOCC1)c1ccccc1` [Example 104, N-((4-(4-(2-fluorobenzyl)piperazin-1-yl)tetrahydro-2H-pyran-4-yl)methyl)-N-phenylpropionamide], the inhibitory constant (Ki) is less than 0.5 µM. Turning to `CCC(=O)N(CC1(N2CCN(Cc3ccc(F)c(F)c3)CC2)CC1)c1ccccc1` [Example 117, N-((1-(4-(3,4-difluorobenzyl)piperazin-1-yl)cyclopropyl)methyl)-N-phenylpropionamide], the inhibition constant (Ki) was less than 0.1 µM. Same read-out and setting: the result for `CCC(=O)N(CC1(N2CCN(CCOC(C)C)CC2)CCOC(C)(C)C1)c1ncccc1F` (stereo not drawn) [Example 167, N-(3-fluoropyridin-2-yl)-N-((4-(4-(2-isopropoxyethyl)piperazin-1-yl)-2,2-dimethyltetrahydro-2H-pyran-4-yl)methyl)propionamide] reads less than 0.5 µM; that for `CCC(=O)N(CC1(N2CCN(Cc3cncc(F)c3)CC2)CC1)c1ccccc1` [Example 122, N-((1-(4-((5-fluoropyridin-3-yl)methyl)piperazin-1-yl)cyclopropyl)methyl)-N-phenylpropionamide], less than 0.5 µM; that for `CCC(=O)N(CC1(N2CCN(CCN3CCOCC3)CC2)CCOCC1)c1cccc(C(F)(F)F)n1` [Example 184, N-((4-(4-(2-morpholinoethyl)piperazin-1-yl)tetrahydro-2H-pyran-4-yl)methyl)-N-(6-(trifluoromethyl)pyridin-2-yl)propionamide], more than 0.5 µM. In turn, `CCC(=O)N(CC1(N2CCN(Cc3ccccc3)CC2)CCOCC1)c1ncccc1C(F)(F)F` [Example 59, N-((4-(4-benzylpiperazin-1-yl)tetrahydro-2H-pyran-4-yl)methyl)-N-(3-(trifluoromethyl)pyridin-2-yl)propionamide] displayed a Ki of less than 0.5 µM. In turn, `CCC(=O)N(CC1(N2CCN(CCC(C)C)CC2)CCOCC1)c1ncccc1F` [Example 155, N-(3-fluoropyridin-2-yl)-N-((4-(4-isopentylpiperazin-1-yl)tetrahydro-2H-pyran-4-yl)methyl)propionamide] gave an inhibition constant Ki of less than 0.5 µM. On to `CCC(=O)N(CC1(N2CCN(CC(C)C)CC2)CCOCC1)c1ncccc1C#N` [Example 62, N-(3-cyanopyridin-2-yl)-N-((4-(4-isobutylpiperazin-1-yl)tetrahydro-2H-pyran-4-yl)methyl)propionamide], for which the “μ and σ1 dual” value is “++”. For `CCC(=O)N(CC1(N2CCN(Cc3ccc(C(=O)NC)cc3)CC2)CCOCC1)c1ccccc1` [Example 125, N-methyl-4-((4-(4-((N-phenylpropionamido)methyl)tetrahydro-2H-pyran-4-yl)piperazin-1-yl)methyl)benzamide], the “μ and σ1 dual” value is listed as “++”. `CCC(=O)N(CC1(N2CCN(C(CO)c3ccccc3)CC2)CCOCC1)c1ccccn1` (stereo not drawn) [Example 181, N-((4-(4-(2-hydroxy-1-phenylethyl)piperazin-1-yl)tetrahydro-2H-pyran-4-yl)methyl)-N-(pyridin-2-yl)propionamide] had a Ki of more than 0.5 µM. As to `CCC(=O)N(CC1(N2CCN(Cc3ccccc3)CC2)CCOC(C)(C)C1)c1cccc(C#N)n1` (stereo not drawn) [Example 65, N-((4-(4-benzylpiperazin-1-yl)-2,2-dimethyltetrahydro-2H-pyran-4-yl)methyl)-N-(6-cyanopyridin-2-yl)propionamide], the Ki was less than 0.5 µM. Compound `CCC(=O)N(CC1(N2CCN(Cc3cccc(F)c3)CC2)CC1)c1ccccc1` [Example 116, N-((1-(4-(3-fluorobenzyl)piperazin-1-yl)cyclopropyl)methyl)-N-phenylpropionamide] displayed an inhibition constant (Ki) of less than 0.1 µM. Still for that read-out and setting: the result for `CCC(=O)N(CC1(N2CCN(C(C)CC)CC2)CCOC(C)(C)C1)c1cccc(C(F)(F)F)n1` (stereo not drawn) [Example 162, N-((4-(4-sec-butylpiperazin-1-yl)-2,2-dimethyltetrahydro-2H-pyran-4-yl)methyl)-N-(6-(trifluoromethyl)pyridin-2-yl)propionamide] reads more than 0.5 µM; that for `CCC(=O)N(CC1(N2CCN(Cc3ccccc3)CC2)CCOCC1)c1cccc(F)c1` [Example 5, N-((4-(4-benzylpiperazin-1-yl)tetrahydro-2H-pyran-4-yl)methyl)-N-(3-fluorophenyl)propionamide], less than 0.1 µM. The compound `CCC(=O)N(CC1(N2CCN(C(C(=O)OC)c3ccccc3)CC2)CCOCC1)c1ccccn1` (stereo not drawn) [Example 180, methyl 2-phenyl-2-(4-(4-((N-(pyridin-2-yl)propionamido)methyl)tetrahydro-2H-pyran-4-yl)piperazin-1-yl)acetate] yielded a Ki of more than 0.5 µM. Turning to `CCOCCN1CCN(C2(CN(C(=O)CC)c3cccc(C#N)n3)CCOC(C)(C)C2)CC1` (stereo not drawn) [Example 171, N-(6-cyanopyridin-2-yl)-N-((4-(4-(2-ethoxyethyl)piperazin-1-yl)-2,2-dimethyltetrahydro-2H-pyran-4-yl)methyl)propionamide], the inhibitory constant (Ki) was more than 0.5 µM.

Compound `CCC(=O)N(CC1(N2CCN(Cc3ccccc3)CC2)CCOCC1)c1ccccc1F` [Example 4, N-((4-(4-benzylpiperazin-1-yl)tetrahydro-2H-pyran-4-yl)methyl)-N-(2-fluorophenyl)propionamide] showed an inhibitory constant (Ki) of less than 0.1 µM.
